# Reference: patent US20090142363A1, “CYTOTOXIC T-CELL EPITOPE PEPTIDE AND USE THEREOF” (priority 2005, published 2009)
# No end group written: not given here.
# Assays:
# [1] = tested on: PBMCs of healthy adults reactive to the anti-HLA-A*24 antibody; experiment: Induction of specific CTLs from PBMCs, method for quantifying cells producing intracellular IFNγ; assay type: cell-based, human; set-up: key to specific CTL induction, cytokine quantification method: ∘: “open circle” indicates that the use of a candidate peptide enabled specific CTLs to be induced; x: “cross” indicates that specific CTLs was unable to be induced; conditions: for peptide-specific cytokine production in PBMCs derived from ten people with HLA-A*24 molecule: summary of Table 2; for CD8-positive, IFNγ-positive cells in UR: HIV peptides added for restimulation as negative control
# Experimental: This induction method induces CTLs by adding peptides to culture media of PBMCs. Peptides are presented on antigen-presenting cells present among PBMCs, such as dendritic cells, B cells, macrophages, and certain types of T cells, whereby CTL precursor cells in PBMCs are stimulated to proliferate.
# Peripheral blood collected from healthy adults that were reactive to the anti-HLA-A*24 antibody was centrifuged at 3,000 rpm for 5 to 10 minutes. The resulting supernatant plasma was collected. The non-plasma portion was processed according to a conventional method to isolate PBMCs. The characteristic of the present method is the addition of several % of plasma to an induction medium. In the present invention, a favorable result was obtained by adding 5% plasma. The medium is prepared by adding appropriate additives and antibiotics to a medium commonly used for cell culture. The CTL induction medium used in the present invention was RPMI1640 Hepes modify (Sigam) supplemented with 2-mercapotethanol, L-glutamine, and the antibiotics streptomycin and penicillin. In addition to these, insulin, transferrin, selenious acid, pyruvic acid, human serum albumin, solution of non-essential amino acids, and the like may be added. 1 to 3×10^6 PBMCs were suspended in 1 to 2.5 ml of the culture medium. A candidate peptide was added to the cells at a concentration of 1 to 20 μg/ml. The concentration of peptide can be altered depending on the solubility of the peptide. The peptide was added at 10 μg/ml. After two days, IL-2 was added at a final concentration of 20 to 100 U/ml. Round-bottomed culture dishes that allow the exchange of carbon dioxide gas are preferably used to co-culture PBMCs with peptides. In the context of the present invention, 14-ml round-bottomed polypropylene tubes (Becton Dikinson) or 96-well U-bottomed cell culture microtest plates (Becton Dikinson) were used. The adenovirus-specific CTLs were confirmed after about two and four weeks of culture. The cells were stimulated again with the peptide at 10 μg/ml after about two weeks of culture. When the induction of adenovirus-specific CTLs was confirmed, the cells were further stimulated with peptide-pulsed antigen-presenting cells to establish CTL lines.
# Approximately 1/10 to all of the cells induced by the above-described method were transferred into 96-well U-bottomed cell culture microtest plates, and the peptide used for the induction was added thereto at a final concentration of 0.01 to 0.05 μg/ml. Then, an intracellular protein transport inhibitor (for example, brefeldin A, monensin, or such) was added, and the cells were cultured in a 5% CO2 incubator at 37° C. for 5 to 16 hours. After culture, the cells were washed, and phycoerythrin (PE)-labeled MHC-tetramer reagent and phycoerythrin-Cy5(PC5)-labeled CD8 antibody (Beckman Coulter) were added thereto. The resulting mixture was allowed to stand at room temperature for 15 to 30 minutes. After washing, the cells were fixed with 4% formaldehyde at 4° C. for 15 minutes and washed with an excess amount of washing solution. After membrane permeabilization treatment with 0.1% saponin, an FITC-labeled anti-IFNγ antibody (Beckman Coulter) was added, and reacted at room temperature for 15 to 30 minutes. After washing, the proportion of IFNγ-positive cells in T cells or MHC-tetramer reagent-positive cells was determined using a flow cytometer.
# PBMCs derived from ten people with HLA-A*24 molecule were tested using 10 types of peptides. […] Thus, these six types of candidate epitope peptides serve as adenovirus-specific CTL epitope peptides. Since the adenovirus-specific CTL epitope peptides have the HLA-A*24-binding motif, they are likely to be HLA-A*2402-restricted epitope peptides, which are carried by 60% or more of the Japanese people. In the context of the results described above, MHC-tetramer reagents were synthesized using five types of epitope peptides, and their utility was tested.
# [2] = tested on: peripheral blood / PBMCs / peptide-induced CTL lines of HLA-A*24 donors; experiment: Staining of peripheral blood, PBMCs or peptide-induced CTL lines with MHC-tetramer reagents; assay type: cell-based, human; conditions: for profile of tetramer-positive cells: donor ID*24-12, peptide-induced cells; for population of CD8-negative, tetramer reagent-positive cells in the UL / population of CD8-positive, tetramer-positive cells in the UR: peptide-induced CTL lines; for population of CD8-negative, tetramer reagent-positive cells in the UL: FIG. 5, VYS-Tet: donor ID*24-1, *24-3, *24-11, *24-12, *24-14; for staining pattern at day 10 compared to Negative Tetramer reagent: donor ID*24-8, 10 days culture with peptide; for population of CD8-positive, tetramer-positive cells in the UR: donor ID*24-2 and *24-8, FIG. 5
# Experimental: MBL Co. where the present inventors are affiliated with has acquired exclusive patent licensing rights in Japan for MHC-tetramer reagents (U.S. Pat. No. 5,635,363; French Application No. FR9911133; and U.S. Pat. Nos. 5,723,584, 5,874,239, 5,932,433, and 6,265,552) from Beckman Coulter Co. Based on the patents, PE-labeled MHC-tetramer reagents were prepared using adenovirus-specific CTL epitope peptides and HLA-A*2402 molecules.
# Adenovirus-specific CTLs quantification was carried out using MHC-tetramer reagents that was prepared using CTL epitope peptides of the present invention, with peripheral blood, PBMCs isolated from peripheral blood, CTL lines induced using CTL epitope peptides as samples. Examples of quantification using PE-labeled MHC-tetramer reagents are described below. Labelling dyes may be used in an appropriate combination depending on the type of flow cytometer to be used, and is not limited to the examples described below.
# Ten μl of a PE-labeled MHC-tetramer reagent, 20 μl of an FITC-labeled antibody for T cell (for example, CD8, CD4, or CD3), and such were added to 200 μl of collected peripheral blood. A CD45 antibody labeled with PC5 or such may also be added to eliminate nonspecific fluorescence due to contaminated erythrocytes. After gentle mixing, the mixture was allowed to stand at room temperature for 30 minutes. OptiLyse B was added, and erythrolysis and fixation was carried out according to the manufacturer's protocol. Two ml of PBS was added, stirred, and the cells were centrifuged at 400×g for 5 minutes. After the supernatant was removed by aspiration, the cells were resuspended in 500 μl of PBS and analyzed using a flow cytometer within 24 hours.
# Ten μl of a PE-labeled MHC-tetramer reagent, 20 μl of an FITC-labeled T cell surface antibody (for example, CD8, CD4, or CD3), and such were added to an appropriate amount of PBMCs (10^5 to 10^6 cells) or a CTL line induced by use of CTL epitope peptides. A CD45 antibody labeled with PC5 or such may also be added to eliminate nonspecific fluorescence due to contaminated erythrocytes. After gentle mixing, the cells were allowed to stand at room temperature for 30 minutes. Three ml of PBS was added, stirred, and the cells were centrifuged at 400×g for 5 minutes. After the supernatant was removed by aspiration, the cells were resuspended in 500 μl of PBS. When a CTL line is used, 7-AAD Viability Dye (Non-viable cell detection reagent; MBL Co.) may be added to eliminate nonspecific fluorescence caused by non-viable cells. The cells were analyzed using a flow cytometer within 24 hours.
# The results of staining obtained using the five types of MHC-tetramer reagents used to prepare the peptide-induced CTL lines are shown in FIG. 5.
# [3] = PBMCs from donor ID*24-14 after 24 days of stimulation with LYA
Substance,"specific CTL induction, cytokine quantification method ([1]; donor ID *24-1)","specific CTL induction, cytokine quantification method ([1]; donor ID *24-2)","specific CTL induction, cytokine quantification method ([1]; donor ID *24-3)","specific CTL induction, cytokine quantification method ([1]; donor ID *24-5)","specific CTL induction, cytokine quantification method ([1]; donor ID *24-8)","specific CTL induction, cytokine quantification method ([1]; donor ID *24-10)","specific CTL induction, cytokine quantification method ([1]; donor ID *24-11)","specific CTL induction, cytokine quantification method ([1]; donor ID *24-12)","specific CTL induction, cytokine quantification method ([1]; donor ID *24-13)","specific CTL induction, cytokine quantification method ([1]; donor ID *24-14)",other results
DYLSAANML,∘,∘,x,x,x,∘,x,∘,x,x,"CD8-positive, IFNγ-positive (producing) cells in UR ([1]; donor *24-12, restimulation with the same peptide as used in the induction, % in PBMCs): 0.49%; specific CTL induction confirmed by CD8-positive, IFNγ-positive cells versus HIV peptide ([1]; donor ID*24-12, FIG. 3e-h): specific CTL induction was confirmed; peptide-specific cytokine production in PBMCs derived from ten people with HLA-A*24 molecule [1]: induce cytokine production in a peptide-specific manner; number of persons with peptide-specific IFNγ production / CTL induction ([1]; ten persons tested): four of the ten persons"
GYKDRMYSF,x,x,x,x,∘,x,x,x,x,x,"specific CTL induction confirmed by CD8-positive, IFNγ-positive cells versus HIV peptide ([1]; donor ID*24-8, FIG. 3a-d): induced specific CTLs; peptide-specific cytokine production in PBMCs derived from ten people with HLA-A*24 molecule [1]: induce cytokine production in a peptide-specific manner"
HLA-A*2402 DYLSAANML (Seq Id No: 1) Tetramer Reagent [DYL-Tet],,,,,,,,,,,profile of tetramer-positive cells [2]: no relevant profile
HLA-A*2402 LYANSAHAL (Seq Id No: 2) Tetramer Reagent [LYA-Tet],,,,,,,,,,,"CD3-positive, LYA-Tet-positive cells [2, 3]: 1.13%; CD4-positive, LYA-Tet-positive cells [2, 3]: 0.09%; CD8-positive, LYA-Tet-positive cells [2, 3]: 0.18%; population of CD8-negative, tetramer reagent-positive cells in the UL [2]: detected"
HLA-A*2402 LYSNVALYL (Seq Id No: 5) Tetramer Reagent [LYS-Tet],,,,,,,,,,,profile of tetramer-positive cells [2]: no relevant profile
HLA-A*2402 TYFNLGNKF (Seq Id No: 4) Tetramer Reagent [TYF-Tet],,,,,,,,,,,"staining pattern at day 10 compared to Negative Tetramer reagent [2]: clear CD8-positive, MHC-tetramer-positive pattern; population of CD8-positive, tetramer-positive cells in the UR [2]: clearly detected"
HLA-A*2402 VYSGSIPYL (SEQ ID NO: 3) Tetramer Reagent [VYS-Tet],,,,,,,,,,,"staining pattern at day 10 compared to Negative Tetramer reagent [2]: clear CD8-positive, MHC-tetramer-positive pattern; population of CD8-negative, tetramer reagent-positive cells in the UL [2]: detected; population of CD8-positive, tetramer-positive cells in the UR [2]: clearly detected"
KYTPSNVTL,x,x,x,x,x,x,x,x,x,x,
NYIGFRDNF,x,x,x,x,x,x,x,x,x,x,
NYNIGYQGF,x,x,x,x,x,x,x,x,x,x,
"QYDPVAALF [CMV pp65, reference compound]",,,,,,,,,,,"specific CTLs (CD8-positive MHC-tetramer reagent-positive cells, UR) ([2]; donor ID*24-2, 13 days stimulation with the peptide, then HIV peptide added, % of whole viable cells): 28.8%"
"RYLRDQQLL [HIV peptide, reference compound]",,,,,,,,,,,"CD8-positive, IFNγ-positive cells in UR ([1]; donor *24-8): 0.62%; CD8-positive, IFNγ-positive cells in UR ([1]; donor *24-12): 0.18%"
SYQLLLDSL,x,x,x,x,x,x,x,x,x,x,
